# Data: patent US7425558B2, “Serotonergic agents for treating sexual dysfunction” (Wyeth, priority 2000, dated 2008)
# Legend:
# [1] = system: sexually experienced male rats (Sprague-Dawley rats); test: Non-contact penile erections in sexually experienced male rats (animal model of drug-induced sexual dysfunction); type: in vivo; conditions: for Reversal of fluoxetine-induced sexual dysfunction: administered acutely after 7 or 14 days of fluoxetine treatment; for Prevention of deficit in non-contact penile erections produced by chronic fluoxetine: co-administered with fluoxetine 10 mg/kg for 7 or 14 days, Example compound 3 1 mg/kg, Example compound 2 0.3 mg/kg
# Description: The animal model is based on the finding that sexually experienced rats that are administered an SSRI, a drug used to treat certain conditions such as depression, display a reduction in the number of non-contact penile erections. SSRI treatment is associated with sexual dysfunction in human subjects. In general, the animal model exposes sexually experienced male rats (Sprague-Dawley rats) to female rats in estrous in a novel testing arena that is not the regular housing environment.
# The ability of various drugs associated with sexual dysfunction in humans to cause sexual dysfunction in the animal model was tested using three different drugs, bupropion (20 mg/kg), desipramine (10 mg/kg), and fluoxetine (10 mg/kg), or vehicle alone (0.9% saline), each administered intraperitoneally (i.p.), once per day for 14 days. After the treatment period, animals were tested for the frequency of non-contact penile erections over a 30 minute trial period.
# To examine the time course of the effects of a drug that causes sexual dysfunction, rats that were handled and tested as described above were treated acutely: rats were treated with vehicle for 6 days, and on the test day (day 7) instead of vehicle, the animals received a single dose of fluoxetine in vehicle (i.p.). For a subchronic (7 day) study, fluoxetine was administered each day for 7 days and the animals were evaluated on test day 7. For the chronic 14 day study, fluoxetine was administered each day for 14 days and the animals were tested on day 14. Each fluoxetine dose was 10 mg/kg in vehicle and was delivered i.p. on each of the test days as described above.
# To test the ability of a 5-HT1A antagonist to ameliorate the effects of sexual dysfunction, sexually experienced rats were administered an SSRI using an acute or subchronic (7 day) schedule and then tested for sexual function as described above.
# In these experiments, rats were treated with vehicle only on days 1-13 then administered a single acute dose of 0.1 mg/kg of the compound (group 1), vehicle only for days 1-13 and a single dose of 1.0 mg/kg compound in vehicle on day 14 (group 2), only vehicle on days 1-14 (group 3), fluoxetine on days 1-14 (group 4), fluoxetine on days 1-13 and a single administration of 0.1 mg/kg of the compound and fluoxetine on day 14 (group 5); and fluoxetine on days 1-13 and a single dose of 1.0 mg/kg compound with fluoxetine on day 14 (group 6). For each group, behavior testing was performed for 30 minutes immediately following drug administration on day 14 only.
# Experiments were conducted to assess the ability of a 5-HT1A antagonist to prevent the effects of SSRI treatment. Rats, as described supra, were co-administered a 5-HT1A antagonist and an SSRI. […] The administered SSRI was fluoxetine (10 mg/kg). The 5-HT1A antagonist and SSRI were co-administered for 7 or 14 days with the SSRI.
# [2] = biological target: T1, cloned human 5-HT1A receptors (Homo sapiens, UniProt P08908); test: Binding to cloned human 5-HT1A receptors in CHO cells, [3H]8-OH-DPAT radioligand; conditions: read-out: 5-HT1A Affinity Ki
# T1 construct: expressed in transfected cells; host or cells: CHO cells
# T1 sequence (P08908 1-422): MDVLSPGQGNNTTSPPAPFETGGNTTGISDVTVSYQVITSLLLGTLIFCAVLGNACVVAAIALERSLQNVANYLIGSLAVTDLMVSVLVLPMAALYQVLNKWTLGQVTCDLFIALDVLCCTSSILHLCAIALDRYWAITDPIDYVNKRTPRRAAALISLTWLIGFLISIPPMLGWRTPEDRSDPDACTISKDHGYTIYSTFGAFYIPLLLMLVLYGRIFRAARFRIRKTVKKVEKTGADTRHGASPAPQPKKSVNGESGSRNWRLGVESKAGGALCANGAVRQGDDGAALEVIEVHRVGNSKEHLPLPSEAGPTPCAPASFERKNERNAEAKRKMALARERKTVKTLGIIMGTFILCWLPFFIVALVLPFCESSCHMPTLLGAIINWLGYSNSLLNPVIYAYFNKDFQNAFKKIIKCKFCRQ
# [3] = biological target: T2, human 5-HT1A receptor (Homo sapiens, UniProt P08908); test: In vitro functional activity: antagonism of 8-OH-DPAT inhibition of forskolin-stimulated cAMP production; type: cell-based; conditions: antagonism of 10 nM 8-OH-DPAT inhibition of forskolin-stimulated cAMP production; read-out: 5-HT1A Antagonist Activity cAMP Assay IC50
# T2 construct: expressed in transfected cells
# T2 sequence (P08908 1-422): T1 sequence (P08908 1-422)
# [4] = biological target: T3, 5-HT1A (Rattus norvegicus, UniProt P19327); test: Fixed Responding Model, in vivo 5-HT1A antagonism of 8-OH-DPAT-induced decrease in response rate; set-up: species or system rats
# T3 construct: from tissue; host or cells: whole animal (rat), behavioural model
# T3 sequence (P19327 1-422): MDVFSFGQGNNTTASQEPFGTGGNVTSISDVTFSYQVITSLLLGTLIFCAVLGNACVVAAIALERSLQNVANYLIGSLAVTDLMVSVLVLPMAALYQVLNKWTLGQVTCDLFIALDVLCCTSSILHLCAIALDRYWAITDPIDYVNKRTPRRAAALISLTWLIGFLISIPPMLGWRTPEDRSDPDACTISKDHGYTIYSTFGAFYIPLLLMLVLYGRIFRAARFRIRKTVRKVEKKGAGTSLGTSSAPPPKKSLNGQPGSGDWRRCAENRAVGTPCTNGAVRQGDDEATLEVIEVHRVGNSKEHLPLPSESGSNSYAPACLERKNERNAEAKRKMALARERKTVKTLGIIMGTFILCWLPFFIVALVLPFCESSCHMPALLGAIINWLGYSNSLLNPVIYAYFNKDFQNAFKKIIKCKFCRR
# Description: The ability of the compounds to function in vivo as 5-HT1A antagonists was assessed in rats using a Fixed Responding Model (D. Blackman, in “Operant Conditioning: An Experimental Analysis of Behavior”, J. Butcher, ed., Methuen and Co., Ltd., London). In this model rats are trained to respond (lever pressing) under a fixed-ratio 30 schedule of food presentation in order to receive a food pellet reinforcer. […] The 5-HT1A antagonist activity of a test compound is determined by measuring its ability to antagonize this agonist-induced decrease in response rate.
# [5] = biological target: T3, 5-HT1A; test: Duration of action in the Fixed Responding Model; type: in vivo, rats
# Text: All drug and vehicle administrations were made by the subcutaneous route.
compound,measurement,setting,value
"CNCCC(Oc1ccc(C(F)(F)F)cc1)c1ccccc1 (stereo not drawn) [fluoxetine, N-methyl-3-(p-trifluoromethylphenoxy)-3-phenylpropylamine, reference compound]",Sexual dysfunction (number of non-contact penile erections in 30 minutes),[1]; chronic (14 days) fluoxetine 10 mg/kg i.p.,significant increase in sexual dysfunction
same,Sexual dysfunction (number of non-contact penile erections in 30 minutes),[1]; sub-chronic (7 days) fluoxetine 10 mg/kg i.p.,significant increase in sexual dysfunction
(R)-N-(2-methyl-(4-indolyl-1-piperazinyl)ethyl)-N-(2-pyridinyl)cyclohexanecarboxamide [Example compound 3],Reversal of fluoxetine-induced sexual dysfunction,[1],complete and significant reversal
same,Prevention of deficit in non-contact penile erections produced by chronic fluoxetine,[1],prevented the deficit in non-contact penile erections
same,Reversal of deficits in number of non-contact penile erections,[1]; single dose 0.1 mg/kg on day 14 of fluoxetine 10 mg/kg/day i.p.,full reversal
same,Reversal of deficits in number of non-contact penile erections,[1]; single dose 1.0 mg/kg on day 14 of fluoxetine 10 mg/kg/day i.p.,full reversal
"C[C@H](CN(C(=O)c1ccc(C#N)cc1)c1ccccn1)N1CCN(c2cccc3c2OCCO3)CC1 [Example 1, (R)-4-Cyano-N-{2-[4-(2,3-Dihydro-Benzo[1,4]dioxin-5-yl)-Piperazin-1-yl]-Propyl}-N-Pyridin-2-yl-Benzamide]",Ki,[2],1.6 nM
same,IC50,[3],25 nM
same,Reversal of decrease in response rate induced by 8-OH-DPAT,"[4]; 1 mg/kg dose, 0.3 mg/kg 8-OH-DPAT",completely reverses
same,Response Rate,"[4]; 8-OH-DPAT (0.3 mg/kg sc) + Example compound 1 (1 mg/kg sc), vehicle control 2.4 ± 0.5",2.5 ± 0.2 responses/second
same,Antagonism of agonist-induced decrease in responding,[5]; 30 minutes after administration,completely antagonize
same,Duration of action,"[5]; Fixed Responding Model, sc",> 4 h
same,Dose Which Shifts Agonist Dose-response Curve by 10-fold,[5]; administered 30 minutes prior to 8-OH-DPAT,"1.0 mg/kg, sc"
same,5-HT1A antagonist effect on response rate,[5]; agonist given 2 hours following test drug administration,complete 5-HT1A antagonist effects
same,5-HT1A antagonist effect on response rate,[5]; four hours post-administration,complete antagonism
same,"% Response Rate, 0.5 hour pretreatment","[5]; test compound sc (Table 3 dose) 0.5 hour before 0.3 mg/kg 8-OH-DPAT, 100% = vehicle control response rate",100 ± 7%
same,"% Response Rate, 2 hour pretreatment","[5]; test compound sc (Table 3 dose) 2 hours before 0.3 mg/kg 8-OH-DPAT, 100% = vehicle control response rate",118 ± 13%
same,"% Response Rate, 4 hour pretreatment","[5]; test compound sc (Table 3 dose) 4 hours before 0.3 mg/kg 8-OH-DPAT, 100% = vehicle control response rate",99 ± 16%
"COc1ccccc1N1CCN(CCN(C(=O)C2CCCCC2)c2ccccn2)CC1 [Example compound 2, N-[2-[4-(2-methoxyphenyl)-1-piperazinyl]ethyl]-N-(2-pyridinyl)cyclohexanecarboxamide]",Reversal of fluoxetine-induced sexual dysfunction,[1],complete and significant reversal
same,Prevention of deficit in non-contact penile erections produced by chronic fluoxetine,[1],prevented the deficit in non-contact penile erections
same,Effect on drug-induced sexual dysfunction,[1]; single acute dose after a period of drug-induced sexual dysfunction,ameliorated sexual dysfunction
